Test: Case report: with autism given ibuprofen for children during a 7-day fever
Type: in vivo, human
Settings: one child, ibuprofen about 30-40 mg/kg throughout 7 days
Source text: Subject […] was born […], and developed normally until reaching […] (the “regression time”). […] The […] developed autistic symptoms after the regression time, such as ceasing to respond to their name and losing the skills they had attained so far as their neurological health progressively deteriorated. At or about the same time of the regression time, the […] also developed other medical problems including Vitiligo. After an evaluation, a therapist from the Early Child Intervention Program advised the parents that the child had red flags for autism. Following a viral and bacterial infection […], the […]'s autistic symptoms became severe. The […] was officially diagnosed with autism by a developmental pediatrician, and qualified for the Preschool Program for Children With Disabilities (PPCD). While in the PPCD program, the […] was evaluated by a speech therapist who diagnosed them with severe speech impairments. A video of the child showing severe autistic symptoms is available at http://www.youtube.com/watch?v=GbEeNJgaIQQ. When the child turned […] they developed another viral infection and developed a high fever that lasted over 7 days. […] They were more aware, calm and was saying more words. […] Gastrointestinal problems caused by the ibuprofen soon surfaced, however. […]

## CC(C)Cc1ccc(C(C)C(=O)O)cc1 (centres unmarked) [ibuprofen]
autism, viral infection with fever
  autistic symptoms while under ibuprofen: autistic symptoms decreased
Little food intake
  gastrointestinal side effects of ibuprofen: gastrointestinal lesions and ulcers caused by the ibuprofen

Reference: patent US20120237482A1, “METHODS FOR TREATMENT OF NEUROLOGICAL DISORDERS BY MODULATION OF MICROGLIAL ACTIVATION” (priority 2011, published 2012)
